Activity calls are given as the source filed them. The rule behind the calls is not given here.
Key:
[1] = biological target: Human immunodeficiency virus type 1 protease (Human immunodeficiency virus 1, UniProt Q72874); experiment: Binding affinity for HIV-1 protease
MT4 = experiment: Inhibition of HIV-1 induced cytopathic effect in HTLV1 transformed MT-4 cells.; type: functional; conditions: Homo sapiens, read-out: ED50 (the source's name)
[2] = biological target: Human immunodeficiency virus type 1 protease (Human immunodeficiency virus 1) (UniProt Q72874); experiment: Percentage inhibition against HIV-1 protease was determined at a concentration of 12.5 uM
[3] = biological target: Human immunodeficiency virus type 1 protease (Human immunodeficiency virus 1) (UniProt Q72874); experiment: Binding affinity against HIV-1 protease was determined at a concentration 12.5 uM; not active
[4] = biological target: Human immunodeficiency virus type 1 protease (Human immunodeficiency virus 1) (UniProt Q72874); experiment: Binding affinity against HIV-1 protease was determined at a concentration of 12.5 uM; Not active

Row | SMILES | Ki [1] [nM] | EC50 (MT4) [nM] | inhibition [2] [%] | inhibition [3] | inhibition [4]
1 | CC(C)(C)[C@H](NC(=O)CCc1nc2ccccc2[nH]1)C(=O)N[C@@H](Cc1ccccc1)[C@H](O)[C@@H](CO)[C@H](Cc1ccccc1)NC(=O)[C@@H](NC(=O)CCc1nc2ccccc2[nH]1)C(C)(C)C | 160 | > 10000 |  |  | 
2 | CC(C)(C)[C@H](NC(=O)c1nc2ccccc2[nH]1)C(=O)N[C@@H](Cc1ccccc1)[C@H](O)[C@@H](CO)[C@H](Cc1ccccc1)NC(=O)[C@@H](NC(=O)c1nc2ccccc2[nH]1)C(C)(C)C |  | > 10000 | 42 |  | 
3 | CC(C)[C@H](NC(=O)OCc1ccccc1)C(=O)N[C@@H](Cc1ccccc1)[C@@H](O)[C@H](CO)[C@H](Cc1ccccc1)NC(=O)OC(C)(C)C | 290 | > 10000 |  |  | 
4 | CC(C)(C)[C@H](NC(=O)c1nc2ccccc2[nH]1)C(=O)N[C@@H](Cc1ccccc1)[C@@H](O)[C@H](CO)[C@H](Cc1ccccc1)NC(=O)[C@@H](NC(=O)c1nc2ccccc2[nH]1)C(C)(C)C |  | > 10000 | 31 |  | 
5 | CC(C)C(NC(=O)OCc1ccccc1)C(=O)N[C@@H](Cc1ccccc1)[C@@H](CO)[C@H](O)[C@H](Cc1ccccc1)NC(=O)[C@@H](NC(=O)OCc1ccccc1)C(C)C (single isomer, unassigned; diastereomer A) | 27 | 3700 |  |  | 
6 | CC(C)[C@H](NC(=O)OCc1ccccc1)C(=O)N[C@@H](Cc1ccccc1)[C@H](O)[C@@H](C(=O)O)[C@H](Cc1ccccc1)NC(=O)OC(C)(C)C |  |  |  | inactive | 
7 | CC(C)(C)[C@H](NC(=O)OCc1nc2ccccc2[nH]1)C(=O)N[C@@H](Cc1ccccc1)[C@H](O)[C@@H](CO)[C@H](Cc1ccccc1)NC(=O)[C@@H](NC(=O)OCc1nc2ccccc2[nH]1)C(C)(C)C | 29 | 4700 |  |  | 
8 | CC(C)[C@H](NC(=O)OCc1ccccc1)C(=O)N[C@@H](Cc1ccccc1)[C@@H](O)[C@H](CO)[C@H](Cc1ccccc1)NC(=O)[C@H](CC(N)=O)NC(=O)OCc1ccccc1 | 340 | > 10000 |  |  | 
9 | CC(C)[C@H](NC(=O)OCc1ccccc1)C(=O)N[C@@H](Cc1ccccc1)[C@H](O)[C@@H](CO)[C@H](Cc1ccccc1)NC(=O)C(NC(=O)OCc1ccccc1)C(C)(C)C (single isomer, unassigned; diastereomer B) |  | > 10000 | 39 |  | 
10 | CC(C)C(NC(=O)OCc1ccccc1)C(=O)N[C@@H](Cc1ccccc1)[C@@H](C(=O)O)[C@H](O)[C@H](Cc1ccccc1)NC(=O)[C@@H](NC(=O)OCc1ccccc1)C(C)C (stereo partly specified) | 430 |  |  |  | 
11 | CC(C)(C)[C@H](N)C(=O)N[C@@H](Cc1ccccc1)[C@@H](O)[C@H](CO)[C@H](Cc1ccccc1)NC(=O)[C@@H](N)C(C)(C)C |  | > 10000 | 22 |  | 
12 | CC(C)C(NC(=O)OCc1ccccc1)C(=O)N[C@@H](Cc1ccccc1)[C@H](CO)[C@@H](O)[C@H](Cc1ccccc1)NC(=O)[C@@H](NC(=O)OCc1ccccc1)C(C)C (single isomer, unassigned; diastereomer B) | 510 | > 10000 |  |  | 
13 | CC(C)(C)C(NC(=O)OCc1ccccc1)C(=O)N[C@@H](Cc1ccccc1)[C@H](CO)[C@@H](O)[C@H](Cc1ccccc1)NC(=O)[C@@H](NC(=O)OCc1ccccc1)C(C)(C)C (single isomer, unassigned; diastereomer B) | 255 | > 10000 |  |  | 
14 | CC(C)(C)[C@H](N)C(=O)N[C@@H](Cc1ccccc1)[C@H](O)[C@@H](CO)[C@H](Cc1ccccc1)NC(=O)[C@@H](N)C(C)(C)C |  | > 10000 | 8 |  | 
15 | CC(C)(C)C(NC(=O)OCc1ccccc1)C(=O)N[C@@H](Cc1ccccc1)[C@@H](CO)[C@H](O)[C@H](Cc1ccccc1)NC(=O)[C@@H](NC(=O)OCc1ccccc1)C(C)(C)C (single isomer, unassigned; diastereomer A) | 13 | 1600 |  |  | 
16 | CC(C)(C)[C@H](NC(=O)CCc1nc2ccccc2[nH]1)C(=O)N[C@@H](Cc1ccccc1)[C@@H](O)[C@H](CO)[C@H](Cc1ccccc1)NC(=O)[C@@H](NC(=O)CCc1nc2ccccc2[nH]1)C(C)(C)C | 9 | 520 |  |  | 
17 | COC(=O)[C@H]([C@@H](O)[C@H](Cc1ccccc1)NC(=O)[C@@H](NC(=O)OCc1ccccc1)C(C)C)[C@H](Cc1ccccc1)NC(=O)OC(C)(C)C |  |  |  |  | inactive
18 | CC(C)[C@H](NC(=O)OCc1ccccc1)C(=O)N[C@@H](Cc1ccccc1)[C@H](O)[C@@H](CO)[C@H](Cc1ccccc1)NC(=O)OC(C)(C)C | 3700 | > 10000 |  |  | 
19 | CC(C)[C@H](NC(=O)OCc1ccccc1)C(=O)N[C@@H](Cc1ccccc1)[C@@H](O)[C@H](CO)[C@H](Cc1ccccc1)NC(=O)C(NC(=O)OCc1ccccc1)C(C)(C)C (stereo partly specified) | 16 | 2500 |  |  | 
20 | COC(=O)[C@@H]([C@H](O)[C@H](Cc1ccccc1)NC(=O)[C@@H](NC(=O)OCc1ccccc1)C(C)C)[C@H](Cc1ccccc1)NC(=O)OC(C)(C)C |  |  | 20 |  | 
21 | CC(C)(C)[C@H](NC(=O)OCc1nc2ccccc2[nH]1)C(=O)N[C@@H](Cc1ccccc1)[C@@H](O)[C@H](CO)[C@H](Cc1ccccc1)NC(=O)[C@@H](NC(=O)OCc1nc2ccccc2[nH]1)C(C)(C)C | 13 | 500 |  |  | 
22 | CC(C)[C@H](NC(=O)OCc1ccccc1)C(=O)N[C@@H](Cc1ccccc1)[C@@H](O)[C@H](C(=O)O)[C@H](Cc1ccccc1)NC(=O)OC(C)(C)C |  |  | 18 |  | 
23 | CC(C)[C@H](NC(=O)OCc1ccccc1)C(=O)N[C@@H](Cc1ccccc1)[C@@H](O)[C@@H](CO)[C@H](Cc1ccccc1)NC(=O)[C@@H](CC(N)=O)NC(=O)OCc1ccccc1 |  | > 10000 | 32 |  | 
